For experiment [1], the system named is A375 (malignant melanoma) cell line. Kind of experiment: CellTiter-Glo luminescent cell viability assay, A375. The class given is cell-based, human. The settings on record: Homo sapiens, A-375; for viability at 4 µM: A375, compound at 4 μM; for viability at 4 µM / viability at 10 µM: 72 h; for viability at 10 µM: A375, compound at 10 μM; for EC50: A375 cell line, 72 h incubation, CellTiter-Glo, read-out: EC50, growth inhibition of A375. The essentials:
(§1)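 Adherent cells grow overnight, or suspension cells are seeded 1 h ahead; compound dilutions are then added and plates incubated 72 h at 37 °C. After 30 min at room temperature, CellTiter-Glo reagent is added and luminescence recorded. EC50 derives from signal relative to diluent control.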

Experiment [2] has as its system MOLM-14 (acute myeloid leukemia) cell line. The experiment is described as follows: CellTiter-Glo luminescent cell viability assay, MOLM-14. Format: cell-based, human. The settings on record: Homo sapiens; for viability at 4 µM: MOLM-14, compound at 4 μM; for viability at 4 µM / viability at 10 µM: 72 h; for viability at 10 µM: MOLM-14, compound at 10 μM; for EC50: MOLM-14 cell line, 72 h incubation, CellTiter-Glo, read-out: EC50, growth inhibition of MOLM-14. The essentials:
(§2)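 Each line grew in its own medium (DMEM low glucose for HepG2, DMEM for Huh7 and PANC-1, MEM alpha for MOLM-14) plus 10% FBS. Three-day compound treatment preceded luminescence reading; EC50 reflects 50% loss of diluent-control signal.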
A general note: In ATP-based viability assays light output follows the ATP content of the culture.

Experiment [3] has as its system HCT-116 (colorectal carcinoma) cell line. Kind of experiment: CellTiter-Glo luminescent cell viability assay, HCT-116. Format: cell-based, human. The following applies: Homo sapiens; for viability at 4 µM: HCT-116, compound at 4 μM; for viability at 4 µM / viability at 10 µM: 72 h; for viability at 10 µM: HCT-116, compound at 10 μM; for EC50: HCT-116 cell line, 72 h incubation, CellTiter-Glo, read-out: EC50, growth inhibition of HCT-116. The essentials: as §1

In experiment [4] the test system is PANC-1 (prancreatic carcinoma) cell line. Kind of experiment: CellTiter-Glo luminescent cell viability assay, PANC-1. The class given is cell-based. The following applies: Homo sapiens; for viability at 4 µM: PANC-1, 4 μM; for viability at 4 µM / viability at 10 µM: 72 h, % of signal of diluent-treated cultures; for viability at 10 µM: PANC-1, 10 μM; for EC50: PANC-1 cell line, 72 h incubation, CellTiter-Glo, read-out: EC50 (growth inhibition assay of PANC-1 cell line). The essentials: as §2

The subject of experiment [5] is 786-O (renal adenocarcinoma) cell line. The experiment is described as follows: CellTiter-Glo luminescent cell viability assay, 786-O. The settings on record: Homo sapiens, 786-0; for EC50: 786-O cell line, 72 h incubation, CellTiter-Glo, read-out: EC50, growth inhibition of 786-O; for viability at 4 µM / viability at 10 µM: 786-O, 72 h; for viability at 4 µM: compound at 4 μM; for viability at 10 µM: compound at 10 μM. Format: cell-based, human. The essentials: as §1

Experiment [6] deals with HepG2 (hepatocellular carcinoma) cell line. The experiment is described as follows: CellTiter-Glo luminescent cell viability assay, HepG2. Format: cell-based, human. The settings on record: Homo sapiens; for viability at 4 µM / viability at 10 µM: HepG2, HepG, 72 h; for viability at 4 µM: compound at 4 μM; for viability at 10 µM: compound at 10 μM; for EC50: HepG2 cell line, 72 h incubation, CellTiter-Glo, read-out: EC50, growth inhibition of HepG2. The essentials:
as §2

The test system of experiment [7] is Huh7 (hepatocellular carcinoma) cell line. Kind of experiment: CellTiter-Glo luminescent cell viability assay, Huh7. The following applies: Homo sapiens, Huh-7; for viability at 4 µM: Huh7, compound at 4 μM; for viability at 4 µM / viability at 10 µM: 72 h; for viability at 10 µM: Huh7, compound at 10 μM; for EC50: Huh7 cell line, 72 h incubation, CellTiter-Glo, read-out: EC50, growth inhibition of Huh7. The class given is cell-based, human. The essentials:
as §2

On to `CN1CCN(C2CCN(c3c(C#N)c(NCc4ccc(Cl)cc4)nc4ccccc34)CC2)CC1` [Compound 3188CN, 2-(4-chlorobenzylamino)-3-cyano-4-[4-(4-methylpiperazin-1-yl)piperidin-1-yl]quinoline], for which the viability at 4 µM in experiment [1] was determined as 52.8%; in experiment [2], 108%; in experiment [3] it was 42.9%; in experiment [4] it was 91.6%; in experiment [5] it was 64%; in experiment [6] it was 82.7%. In experiment [7], the viability at 4 µM is 85.2%. Moreover, the viability at 10 µM in experiment [1] worked out at 0.4%; in experiment [2], 0.7%; in experiment [3], 0.5%; in experiment [4], 3.5%; in experiment [5], 0.5%; in experiment [6], 0.6%. The viability at 10 µM in experiment [7] is 0.6%. Moreover, the EC50 in experiment [1] is 0.5 to 5 µM; in experiment [2], 0.5 to 5 µM; in experiment [3] it was 0.5 to 5 µM; in experiment [4], 5 to 10 µM; in experiment [5] it was 0.5 to 5 µM; in experiment [6], 0.5 to 5 µM. Further, the EC50 in experiment [7] lay within 0.5 to 5 µM.
Regarding `CCN(CC)C1CCN(c2c(C#N)c(NCc3ccc(Cl)cc3)nc3ccccc23)C1` (stereo not drawn) [Compound 126CN, 2-(4-chloro-benzylamino)-3-cyano-4-[3-(diethylamino)pyrrolidin-1-yl]quinoline], the viability at 4 µM is 92.5% in experiment [1]; 105% in experiment [2]; 97% in experiment [3]; 106% in experiment [4]; 91.2% in experiment [5]; 104% in experiment [6]. In addition, the viability at 4 µM in experiment [7] was determined as 98.9%. The viability at 10 µM in experiment [1] was determined as 89.9%; in experiment [2], 99.6%; in experiment [3] it was 93.3%; in experiment [4], 103%; in experiment [5], 87.6%; in experiment [6], 102%. In addition, the viability at 10 µM in experiment [7] is 96.1%.
With `CCN(CC)C1CCN(c2c(C#N)c(NCc3ccc(Cl)cc3)nc3ccccc23)CC1` [Compound 184CN, 2-(4-chlorobenzylamino)-3-cyano-4-[4-(diethylamino)piperidin-1-yl]quinoline], the viability at 4 µM in experiment [1] came out at 53.7%; in experiment [2], 95.1%; in experiment [3], 65.7%; in experiment [4], 91.8%; in experiment [5] it was 72.6%; in experiment [6] it was 72.4%. The viability at 4 µM in experiment [7] was determined as 74.7%. The viability at 10 µM in experiment [1] stood at 0.8%; in experiment [2], 0.7%; in experiment [3] it was 0.9%; in experiment [4], 46.6%; in experiment [5], 1.1%; in experiment [6] it was 0.8%. Moreover, the viability at 10 µM in experiment [7] was determined as 0.7%. Further, the EC50 in experiment [1] lay within 0.5 to 5 µM; in experiment [2], 5 to 10 µM; in experiment [3], 5 to 10 µM; in experiment [4] it was 5 to 10 µM; in experiment [5] it was 5 to 10 µM; in experiment [6], 5 to 10 µM. Further, the EC50 in experiment [7] fell in the range of 5 to 10 µM.
As to `Cn1cc(Nc2nc3ccccc3c(N3CCC(NC(C)(C)C)CC3)c2C#N)cn1` [Compound 3268CN, 2-[(1-methyl-1H-pyrazol-4-yl)amino]-3-cyano-4-[4-(tert-butylamino)piperidin-1-yl]quinoline], the viability at 4 µM in experiment [1] was determined as 61.8%; in experiment [2], 91%; in experiment [3] it was 73.7%; in experiment [4], 95.8%; in experiment [5] it was 109%; in experiment [6], 68.6%. Also, in experiment [7], the viability at 4 µM came out at 94%. Also, the viability at 10 µM in experiment [1] came out at 11.3%; in experiment [2], 77.6%; in experiment [3], 22.6%; in experiment [4], 43.6%; in experiment [5], 80.1%; in experiment [6] it was 56%. The viability at 10 µM in experiment [7] came out at 64.8%.
As to `N#Cc1c(NCc2ccc(Cl)cc2)nc2ccccc2c1N1CCCC(NC2CCCC2)C1` (stereo not drawn) [Compound 162CN, 2-(4-chlorobenzylamino)-3-cyano-4-[3-(cyclopentylamino)piperidin-1-yl]quinoline], the viability at 4 µM in experiment [1] was found to be 0.4%; in experiment [2] it was 45.6%; in experiment [3] it was 0.8%; in experiment [4], 75.3%; in experiment [5] it was 12%; in experiment [6], 0.3%. In experiment [7], the viability at 4 µM was 37.1%. In addition, the viability at 10 µM in experiment [1] came out at 0.2%; in experiment [2], 0.3%; in experiment [3], 0.1%; in experiment [4], 0.8%; in experiment [5], 0.2%; in experiment [6], 0.1%. In addition, the viability at 10 µM in experiment [7] is 0.2%. In addition, the half-maximal effective concentration (EC50) in experiment [1], in experiment [2], in experiment [3], in experiment [5], in experiment [6] and in experiment [7] was 0.5 to 5 µM throughout.
`COc1ccc(Nc2nc3ccccc3c(N3CCC(NC(C)(C)C)CC3)c2C#N)cc1` [Compound 3252CN, 2-(4-methoxyphenylamino)-3-cyano-4-[4-(tert-butylamino)piperidin-1-yl]quinoline]: the viability at 4 µM is 20% in experiment [1]; 80.2% in experiment [2]; 2.5% in experiment [3]; 94.7% in experiment [4]; 74.2% in experiment [5]; 68.4% in experiment [6]. Besides, the viability at 4 µM in experiment [7] was determined as 80.6%. Further, the viability at 10 µM was 0.2% in experiment [1]; 0.7% in experiment [2]; 0.2% in experiment [3]; 47.9% in experiment [4]; 0.3% in experiment [5]; 0.3% in experiment [6]. Also, the viability at 10 µM in experiment [7] came out at 2.9%. Also, the EC50 was in the range of 0.5 to 5 µM in experiment [1]; 5 to 10 µM in experiment [2]; 0.5 to 5 µM in experiment [3]; 5 to 10 µM in experiment [4]; 0.5 to 5 µM in experiment [5]; 5 to 10 µM in experiment [6]. For the same compound, in experiment [7], the EC50 was 5 to 10 µM.
`COc1ccc(CNc2nc3ccccc3c(N3CCC(NC(C)(C)C)CC3)c2C#N)cc1` [Compound 3290CN, 2-(4-methoxybenzylamino)-3-cyano-4-[4-(tert-butylamino)piperidin-1-yl]quinoline]: the viability at 4 µM in experiment [1] amounted to 57.6%; in experiment [2], 76.4%; in experiment [3], 43.8%; in experiment [4], 95.7%; in experiment [5] it was 74.1%; in experiment [6], 75.5%. In experiment [7], the viability at 4 µM was found to be 80.2%. The viability at 10 µM in experiment [1] was 0.8%; in experiment [2], 7.4%; in experiment [3], 0.7%; in experiment [4], 38.3%; in experiment [5], 2.7%; in experiment [6] it was 0.7%. Besides, the viability at 10 µM in experiment [7] stood at 1%. Besides, the EC50 in experiment [1] was in the range of 0.5 to 5 µM; in experiment [2], 5 to 10 µM; in experiment [3] it was 0.5 to 5 µM; in experiment [4], 5 to 10 µM; in experiment [5], 5 to 10 µM; in experiment [6] it was 0.5 to 5 µM. Besides, in experiment [7], the EC50 is 0.5 to 5 µM.
With `CC(C)(C)NC1CCN(c2c(C#N)c(Nc3ccccc3)nc3ccccc23)CC1` [Compound 3246CN, 2-(phenylamino)-3-cyano-4-[4-(tert-butylamino)piperidin-1-yl]quinoline], the viability at 4 µM in experiment [1] is 66.2%; in experiment [2] it was 91.9%; in experiment [3], 3%; in experiment [4], 88.2%; in experiment [5], 59%; in experiment [6] it was 53.2%. In experiment [7], the viability at 4 µM turned out to be 67.7%. For the same compound, the viability at 10 µM in experiment [1] amounted to 0.2%; in experiment [2], 3.1%; in experiment [3] it was 0.1%; in experiment [4] it was 38.8%; in experiment [5], 0.2%; in experiment [6], 0.2%. The viability at 10 µM in experiment [7] stood at 0.6%. The EC50 in experiment [1] fell in the range of 0.5 to 5 µM; in experiment [2], 5 to 10 µM; in experiment [3] it was 0.5 to 5 µM; in experiment [4], 5 to 10 µM; in experiment [5], 5 to 10 µM; in experiment [6], 0.5 to 5 µM. Besides, the EC50 in experiment [7] lay within 0.5 to 5 µM.

For orientation: viability means a read-out of living cells in per cent, often relative to untreated cells. The term EC50 denotes the midpoint of the concentration-response curve.

These data come from patent publication US10577362B2, “Substituted 2, 4-diamino-quinoline derivatives for use in the treatment of proliferative diseases” (GENOSCIENCE PHARMA, priority 2016, dated 2020).
